From PubChem BioAssay AID1745844 (Carcinogenic Potency Database (CPDB), 2022)
“And” between values parts separate entries of the source, which are not always exact repeats. Identical values can stand only once. The source made the active and inactive calls. No rule for the calls is given here.

Tested on: rodent lifetime carcinogenesis bioassay, tumor incidence TD50
Assay: chronic cancer bioassays in animals – CPDB, compiled studies (AID 1745844)

Q: Which carcinogen call (mouse, strain B6C3F1, females, in feed, site: any site (literature study), lesion: several types, types named in the paper, dosed 103 weeks, study length 105 weeks) does the source give for O=C1CCCCCN1 here?
A: Its carcinogen call is “negative (inactive)”.

Q: And the carcinogen call (mouse, strain B6C3F1, males, in feed, site: any site (literature study), lesion: several types, types named in the paper, dosed 103 weeks, study length 105 weeks)?
A: Its carcinogen call is “negative (inactive)”.

Q: And the TD50 (mouse, strain B6C3F1, males, in feed, site: liver, lesion: hepatocellular adenoma + hepatocellular carcinoma + neoplastic nodule, dosed 103 weeks, study length 105 weeks)?
A: Its TD50 is 34300 mg/kg/day.

Q: And the carcinogen call (rat, strain Fischer 344, females, in feed, site: any site (literature study), lesion: several types, types named in the paper, dosed 103 weeks, study length 105 weeks)?
A: The carcinogen call was “negative (inactive)”.

Q: What about the TD50 (rat, strain Fischer 344, males, in feed, site: liver, lesion: hepatocellular adenoma + hepatocellular carcinoma + neoplastic nodule, dosed 103 weeks, study length 105 weeks) of the same molecule?
A: The TD50 was 5690 mg/kg/day.

Q: What about the TD50 (rat, strain Fischer 344, males, in feed, site: pituitary gland, lesion: carcinoma, NOS, dosed 103 weeks, study length 105 weeks) of the same molecule?
A: Its TD50 is 3560 mg/kg/day (inactive).

Q: For [N-]=[N+]=CC(=O)OC[C@H](N)C(=O)O, which TD50 (rat, strain Wistar, both sexes, i.p., site: kidney, lesion: one or several types, types not named, dosed 26 weeks, study length 78 weeks) is on record?
A: The TD50 was 0.942 mg/kg/day.

Q: And the TD50 (rat, strain Wistar, both sexes, i.p., site: liver, lesion: one or several types, types not named, dosed 26 weeks, study length 78 weeks)?
A: Its TD50 is 3.02 mg/kg/day.

Q: What about the TD50 (rat, strain Wistar, both sexes, i.p., site: pancreas, exocrine, lesion: carcinoma, dosed 26 weeks, study length 78 weeks) of the same molecule?
A: The TD50 was 0.793 mg/kg/day.

Q: And the carcinogen call (rat, strain Wistar, males, i.p., site: pancreas, lesion: one or several types, types not named, dosed 104 weeks, study length 104 weeks)?
A: The carcinogen call was “negative (inactive)”.

Q: C=CCN(CC(O)CO)N=O (stereo not drawn) was tested. Which TD50 (rat, strain Fischer 344, females, in drinking water, site: esophagus, lesion: carcinoma, dosed 50 weeks, study length 55 weeks) did it give?
A: Its TD50 is 1.13 mg/kg/day.

Q: What about the TD50 (rat, strain Fischer 344, females, in drinking water, site: esophagus, lesion: several types, types named in the paper, dosed 50 weeks, study length 55 weeks) of the same molecule?
A: The TD50 was 0.825 mg/kg/day.

Q: What about the carcinogen call (rat, strain Fischer 344, females, in drinking water, site: liver, lesion: neoplastic nodule, dosed 50 weeks, study length 55 weeks) of the same molecule?
A: The carcinogen call was “negative (inactive)”.

Q: And the TD50 (rat, strain Fischer 344, females, in drinking water, site: nasal cavity, lesion: several types, types named in the paper, dosed 50 weeks, study length 55 weeks)?
A: Its TD50 is 0.972 mg/kg/day.

Q: Which results are given for OC[C@H]1O[C@H](O[C@]2(CCl)O[C@H](CCl)[C@@H](O)[C@@H]2O)[C@H](O)[C@@H](O)[C@H]1Cl?
A: carcinogen call (mouse, strain Charles River CD1, females, in feed, site: any site (literature study), lesion: several types, types named in the paper, dosed 104 weeks, study length 104 weeks): negative (inactive); carcinogen call (mouse, strain Charles River CD1, females, in feed, site: liver, lesion: hepatocellular adenoma, dosed 104 weeks, study length 104 weeks): negative (inactive); TD50 (mouse, strain Charles River CD1, females, in feed, site: liver, lesion: hepatocellular carcinoma, dosed 104 weeks, study length 104 weeks): 98200 mg/kg/day (inactive); carcinogen call (mouse, strain Charles River CD1, females, in feed, site: lung, lesion: adenoma, dosed 104 weeks, study length 104 weeks): negative (inactive); carcinogen call (mouse, strain Charles River CD1, females, in feed, site: lung, lesion: carcinoma, dosed 104 weeks, study length 104 weeks): negative (inactive); carcinogen call (mouse, strain Charles River CD1, males, in feed, site: any site (literature study), lesion: several types, types named in the paper, dosed 104 weeks, study length 104 weeks): negative (inactive); carcinogen call (mouse, strain Charles River CD1, males, in feed, site: liver, lesion: hepatocellular adenoma, dosed 104 weeks, study length 104 weeks): negative (inactive); carcinogen call (mouse, strain Charles River CD1, males, in feed, site: liver, lesion: hepatocellular carcinoma, dosed 104 weeks, study length 104 weeks): negative (inactive); TD50 (mouse, strain Charles River CD1, males, in feed, site: lung, lesion: adenoma, dosed 104 weeks, study length 104 weeks): 35100 mg/kg/day (inactive); carcinogen call (mouse, strain Charles River CD1, males, in feed, site: lung, lesion: carcinoma, dosed 104 weeks, study length 104 weeks): negative (inactive)

Q: How did the TD50 (rat, strain Sprague-Dawley, females, inhaled, site: Zymbal's gland, lesion: squamous-cell carcinoma, dosed 81 weeks, study length 103 weeks) turn out when C=CBr was run?
A: The TD50 was 2240 mg/kg/day.

Q: And the TD50 (rat, strain Sprague-Dawley, females, inhaled, site: liver, lesion: hepatocellular carcinoma, dosed 81 weeks, study length 103 weeks)?
A: The TD50 was 749 mg/kg/day.

Q: And the TD50 (rat, strain Sprague-Dawley, females, inhaled, site: liver, lesion: neoplastic nodule, dosed 81 weeks, study length 103 weeks)?
A: The TD50 was 18.9 mg/kg/day.

Q: And the TD50 (rat, strain Sprague-Dawley, females, inhaled, site: liver, lesion: several types, types named in the paper, dosed 81 weeks, study length 103 weeks)?
A: The TD50 was 433 mg/kg/day.

Q: What about the TD50 (rat, strain Sprague-Dawley, females, inhaled, site: several sites, sites named in the paper, lesion: angiosarcoma, dosed 81 weeks, study length 103 weeks) of the same molecule?
A: The TD50 was 19.2 mg/kg/day.

Q: And the TD50 (rat, strain Sprague-Dawley, males, inhaled, site: Zymbal's gland, lesion: papilloma, dosed 76 weeks, study length 103 weeks)?
A: Its TD50 is 2760 mg/kg/day.

Q: And the TD50 (rat, strain Sprague-Dawley, males, inhaled, site: Zymbal's gland, lesion: squamous-cell carcinoma, dosed 76 weeks, study length 103 weeks)?
A: Its TD50 is 409 mg/kg/day.

Q: And the TD50 (rat, strain Sprague-Dawley, males, inhaled, site: liver, lesion: hepatocellular carcinoma, dosed 76 weeks, study length 103 weeks)?
A: The TD50 was 387 mg/kg/day.

Q: And the TD50 (rat, strain Sprague-Dawley, males, inhaled, site: liver, lesion: several types, types named in the paper, dosed 76 weeks, study length 103 weeks)?
A: Its TD50 is 303 mg/kg/day.

Q: And the TD50 (rat, strain Sprague-Dawley, males, inhaled, site: several sites, sites named in the paper, lesion: angiosarcoma, dosed 76 weeks, study length 103 weeks)?
A: Its TD50 is 17.9 mg/kg/day.

Q: With CN(N=O)c1ccc(C=Cc2ccnc3ccccc23)cc1 as the molecule, how does the TD50 (rat, strain Fischer, females, in feed, site: liver, lesion: hyperplastic nodule, dosed 34 weeks, study length 52 weeks) read?
A: Its TD50 is 0.468 mg/kg/day.

Q: And the TD50 (rat, strain Fischer, males, in feed, site: liver, lesion: carcinoma, dosed 34 weeks, study length 52 weeks)?
A: Its TD50 is 4.37 mg/kg/day.

Q: What about the TD50 (rat, strain Fischer, males, in feed, site: liver, lesion: hyperplastic nodule, dosed 34 weeks, study length 52 weeks) of the same molecule?
A: Its TD50 is 1.38 mg/kg/day.

Q: NC(=S)NNC=O was tested. Which TD50 (rat, strain Sprague-Dawley, females, in feed, site: any site (literature study), lesion: several types, types named in the paper, dosed 46 weeks, study length 64 weeks) did it give?
A: Its TD50 is 140 mg/kg/day (inactive).

Q: Which TD50 (mouse, strain B6C3F1, females, by gavage, site: liver, lesion: hepatocellular carcinoma, dosed 80 weeks, study length 80 weeks) does the source give for CCCCC(CC)CO (stereo not drawn) here?
A: The TD50 was 1680 mg/kg/day.

Q: And the TD50 (mouse, strain B6C3F1, males, by gavage, site: liver, lesion: several types, types named in the paper, dosed 80 weeks, study length 80 weeks)?
A: Its TD50 is 1710 mg/kg/day (inactive).

Q: And the carcinogen call (rat, strain Fischer 344, females, by gavage, site: liver, lesion: hepatocellular carcinoma, dosed 104 weeks, study length 104 weeks)?
A: Its carcinogen call is “negative (inactive)”.

Q: And the carcinogen call (rat, strain Fischer 344, males, by gavage, site: liver, lesion: several types, types named in the paper, dosed 104 weeks, study length 104 weeks)?
A: Its carcinogen call is “negative (inactive)”.

Q: CC(=O)Nc1nc(-c2ccc([N+](=O)[O-])o2)cs1 was tested. Which TD50 (hamster, strain Syrian Golden, males, in feed, site: forestomach, lesion: squamous-cell papilloma, dosed 48 weeks, study length 70 weeks) did it give?
A: The TD50 was 68.1 mg/kg/day.

Q: And the TD50 (hamster, strain Syrian Golden, males, in feed, site: urinary bladder, lesion: several types, types named in the paper, dosed 48 weeks, study length 70 weeks)?
A: The TD50 was 8.91 mg/kg/day.

Q: What about the TD50 (hamster, strain Syrian Golden, males, in feed, site: urinary bladder, lesion: squamous-cell carcinoma, dosed 48 weeks, study length 70 weeks) of the same molecule?
A: Its TD50 is 60.2 mg/kg/day.

Q: What about the TD50 (rat, strain Sprague-Dawley, females, in feed, site: kidney/pelvis, lesion: transitional-cell carcinoma, dosed 46 weeks, study length 66 weeks) of the same molecule?
A: Its TD50 is 316 mg/kg/day and 660 mg/kg/day.

Q: And the TD50 (rat, strain Sprague-Dawley, females, in feed, site: mammary gland, lesion: adenocarcinoma, dosed 46 weeks, study length 66 weeks)?
A: Its TD50 is 36.2 mg/kg/day.

Q: What about the TD50 (rat, strain Sprague-Dawley, females, in feed, site: mammary gland, lesion: fibroadenoma, dosed 46 weeks, study length 66 weeks) of the same molecule?
A: Its TD50 is 56.9 mg/kg/day and 25 mg/kg/day and 30.2 mg/kg/day.

Q: And the TD50 (rat, strain Sprague-Dawley, females, in feed, site: mammary tissue, wider than the gland, lesion: several types, types named in the paper, dosed 46 weeks, study length 66 weeks)?
A: The TD50 was 10.5 mg/kg/day.

Q: CN(CCCO)N=O was tested. Which TD50 (rat, strain Fischer 344, females, by gavage, site: liver, lesion: neoplastic nodule, dosed 130 weeks, study length 130 weeks) did it give?
A: Its TD50 is 3.48 mg/kg/day.

Q: And the TD50 (rat, strain Fischer 344, females, by gavage, site: lung, lesion: alveolar/bronchiolar adenoma, dosed 130 weeks, study length 130 weeks)?
A: Its TD50 is 14.4 mg/kg/day.

Q: What about the TD50 (rat, strain Fischer 344, females, by gavage, site: lung, lesion: alveolar/bronchiolar carcinoma, dosed 130 weeks, study length 130 weeks) of the same molecule?
A: The TD50 was 24.9 mg/kg/day.

Q: And the TD50 (rat, strain Fischer 344, females, by gavage, site: lung, lesion: several types, types named in the paper, dosed 130 weeks, study length 130 weeks)?
A: The TD50 was 8.06 mg/kg/day.

Q: What about the TD50 (rat, strain Fischer 344, males, by gavage, site: liver, lesion: neoplastic nodule, dosed 130 weeks, study length 130 weeks) of the same molecule?
A: Its TD50 is 4.78 mg/kg/day.

Q: What about the TD50 (rat, strain Fischer 344, males, by gavage, site: lung, lesion: alveolar/bronchiolar adenoma, dosed 130 weeks, study length 130 weeks) of the same molecule?
A: Its TD50 is 8.46 mg/kg/day.

Q: What about the TD50 (rat, strain Fischer 344, males, by gavage, site: lung, lesion: alveolar/bronchiolar carcinoma, dosed 130 weeks, study length 130 weeks) of the same molecule?
A: The TD50 was 2.46 mg/kg/day.

Q: What about the TD50 (rat, strain Fischer 344, males, by gavage, site: lung, lesion: several types, types named in the paper, dosed 130 weeks, study length 130 weeks) of the same molecule?
A: Its TD50 is 1.09 mg/kg/day.

Q: And the TD50 (rat, strain Fischer 344, males, by gavage, site: testis, lesion: interstitial-cell tumor, dosed 130 weeks, study length 130 weeks)?
A: The TD50 was 2.26 mg/kg/day.
